Measured values taken from patent US20260132129A1 (Genesis Therapeutics, Inc., priority 2022, published 2026).

Target: T1, PI3Kα H1047R (T47D cells) (Homo sapiens, UniProt P42336, H1047R)
T1 construct: endogenous in cells; host or cells: T47D cells
Test: PI3Kα cellular assay: pAKT HTRF in T47D cells after EGF stimulation
Format: cell-based
Settings: for IC50: T47D cells (PI3Kα H1047R), pAKT S473 HTRF
How it was run: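 pAKT read by HTRF in lysates of EGF-stimulated (20 ng/mL, 10 min) T47D H1047R cells. Before stimulation, serum-starved cells (16 h) received compound for 1 h at 37 °C, dosed from 10,000 nM down to 0.5 nM in 3-fold steps.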

[1] = selectivity of T47D (H1047R) over SKBR3 (WT) pAKT IC50
[2] = 1 hr compound, 20 ng/ml EGF 10 min
[3] = selectivity T47D (H1047R) over SKBR3 (WT), pAKT HTRF

T1 sequence (P42336 whole entry H1047R): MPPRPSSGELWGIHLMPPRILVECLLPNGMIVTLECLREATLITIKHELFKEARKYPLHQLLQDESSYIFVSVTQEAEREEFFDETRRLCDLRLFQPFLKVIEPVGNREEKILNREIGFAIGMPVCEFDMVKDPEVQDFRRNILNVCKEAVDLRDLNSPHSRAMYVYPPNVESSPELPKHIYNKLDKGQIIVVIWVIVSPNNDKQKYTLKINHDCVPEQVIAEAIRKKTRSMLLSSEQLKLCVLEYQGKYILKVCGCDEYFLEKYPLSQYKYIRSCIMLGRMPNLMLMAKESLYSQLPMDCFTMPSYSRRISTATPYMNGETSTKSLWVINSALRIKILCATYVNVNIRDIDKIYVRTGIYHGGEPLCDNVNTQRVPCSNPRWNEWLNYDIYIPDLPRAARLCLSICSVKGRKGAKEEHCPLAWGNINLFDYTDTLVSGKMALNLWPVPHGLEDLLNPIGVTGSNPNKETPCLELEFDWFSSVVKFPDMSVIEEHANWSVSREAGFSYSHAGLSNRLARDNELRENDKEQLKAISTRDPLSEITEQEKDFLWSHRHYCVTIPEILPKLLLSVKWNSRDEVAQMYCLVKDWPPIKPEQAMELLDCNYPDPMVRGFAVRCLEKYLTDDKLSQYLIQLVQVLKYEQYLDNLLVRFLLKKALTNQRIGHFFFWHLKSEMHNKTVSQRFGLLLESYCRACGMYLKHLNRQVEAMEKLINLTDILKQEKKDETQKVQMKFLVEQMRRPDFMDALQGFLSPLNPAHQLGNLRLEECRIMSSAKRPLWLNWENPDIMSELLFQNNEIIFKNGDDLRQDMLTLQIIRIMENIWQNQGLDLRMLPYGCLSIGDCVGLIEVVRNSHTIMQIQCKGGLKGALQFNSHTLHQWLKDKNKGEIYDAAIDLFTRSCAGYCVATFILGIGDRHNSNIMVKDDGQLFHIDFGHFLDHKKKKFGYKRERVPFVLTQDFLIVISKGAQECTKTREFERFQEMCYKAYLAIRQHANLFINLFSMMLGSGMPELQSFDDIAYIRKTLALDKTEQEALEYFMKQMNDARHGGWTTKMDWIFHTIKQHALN
T1 sequence (P27986 whole entry partner): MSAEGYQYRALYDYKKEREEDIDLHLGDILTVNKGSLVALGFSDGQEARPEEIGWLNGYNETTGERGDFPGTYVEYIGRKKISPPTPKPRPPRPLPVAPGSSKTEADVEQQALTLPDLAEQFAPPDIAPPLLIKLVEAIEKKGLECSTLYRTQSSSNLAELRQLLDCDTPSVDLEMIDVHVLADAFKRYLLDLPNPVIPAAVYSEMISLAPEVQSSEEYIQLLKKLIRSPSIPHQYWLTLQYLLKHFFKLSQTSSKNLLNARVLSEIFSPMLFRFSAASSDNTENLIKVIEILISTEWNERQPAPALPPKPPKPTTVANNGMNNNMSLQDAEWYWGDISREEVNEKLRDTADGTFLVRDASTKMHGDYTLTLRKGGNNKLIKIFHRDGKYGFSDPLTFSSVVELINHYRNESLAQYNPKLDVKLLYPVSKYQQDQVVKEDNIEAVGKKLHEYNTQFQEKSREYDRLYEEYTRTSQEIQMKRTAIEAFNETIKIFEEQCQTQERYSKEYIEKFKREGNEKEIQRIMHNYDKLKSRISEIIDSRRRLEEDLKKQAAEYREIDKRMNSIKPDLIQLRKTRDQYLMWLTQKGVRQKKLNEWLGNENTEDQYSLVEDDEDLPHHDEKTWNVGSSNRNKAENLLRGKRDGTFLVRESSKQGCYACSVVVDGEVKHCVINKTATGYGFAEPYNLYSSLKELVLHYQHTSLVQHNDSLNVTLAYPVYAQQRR

T47D pAKT S473 HTRF IC50 (H1047R): T47D (H1047R) selectivity over SKBR3 (WT) [1] | IC50 (EGF stimulation) [nM] | IC50 [2] [nM] | T47D pAKT S473 HTRF IC50 (H1047R): T47D (H1047R) selectivity over SKBR3 (WT) [3] | Structure (SMILES)
A (A denotes >20-fold) |  |  |  | Cc1cc([C@H](C)Nc2ccccc2C(=O)O)c2nc(-c3ccc4c(c3)CC(=O)N4)cc(=O)n2c1 [Compound 764]
C (C denotes ≤5-fold) | > 2000 |  |  | Cc1cc([C@H](C)Nc2ccccc2C(=O)O)c2nc(-c3ccc4c(c3)CC(F)(F)C4)cc(=O)n2c1 [Compound 823]
 |  | 100 to 500 | A (A denotes >20-fold) | Cc1cc(C(C)Nc2ccccc2C(=O)O)c2nc(-c3ccc4c(c3)c(N)nn4C)cc(=O)n2c1 (centres unmarked) [Compound 347]
A (A denotes >20-fold) | 100 to 500 |  |  | Cc1cc([C@@H](C)Nc2ccccc2C(=O)O)c2nc(N3CC4CC(F)(F)CC4C3)c(C)c(=O)n2c1 (some centres unmarked) [Compound 849]
A (A denotes >20-fold) |  |  |  | Cc1cc(C(C)Nc2ccccc2C(=O)O)c2nc(C3C[C@@H](C)O[C@@H](C)C3)c(C)c(=O)n2c1 (some centres unmarked) [Compound 901]
C (C denotes ≤5-fold) |  |  |  | Cc1cc([C@@H](C)Nc2ccccc2C(=O)O)c2nc(-c3ccc4[nH]nc(C)c4c3)cc(=O)n2c1 [Compound 841]
B (B denotes 20-fold≥value>5-fold) |  |  |  | Cc1cc(C(C)Nc2ccccc2C(=O)O)c2nc(-c3ccc4c(c3)CCN4CC(N)=O)cc(=O)n2c1 (centres unmarked) [Compound 726]
 |  | 500 to 2000 | B (B denotes 20-fold≥value>5-fold) | Cc1cc([C@@H](C)Nc2ccccc2C(=O)O)c2cc(-c3ccnnc3)cc(=O)n2c1 [Compound 483]
A (A denotes >20-fold) | 100 to 500 |  |  | Cc1cc(C(C)Nc2ccccc2-c2ccnnc2)c2nc(N3Cc4ccccc4C3)cc(=O)n2c1 (centres unmarked) [Compound 665, 2-(isoindolin-2-yl)-7-methyl-9-(1-((2-(pyridazin-4-yl)phenyl)amino)ethyl)-4H-pyrido[1,2-a]pyrimidin-4-one]
C (C denotes ≤5-fold) |  |  |  | Cc1cc([C@H](C)Nc2ccccc2C(=O)O)c2nc(N3C[C@H]4C[C@@H](C5CCN(S(=O)(=O)N(C)C)CC5)C[C@H]4C3)cc(=O)n2c1 [Compound 935]
C (C denotes ≤5-fold) | > 2000 |  |  | C=CC(=O)Nc1ccc(C(=O)O)c(N[C@@H](C)c2cc(C)cn3c(=O)cc(N4CCOCC4)nc23)c1 [Compound 873]
 |  | > 2000 | C (C denotes ≤5-fold) | Cc1cc([C@@H](C)Oc2ccccc2C(N)=O)c2nc(N3CCOCC3)cc(=O)n2c1 [Compound 562]
 |  | > 2000 | C (C denotes ≤5-fold) | Cc1cc([C@H](C)Nc2ccccc2C(=O)O)c2nc(-c3ccc(C(=O)NO)cc3)cc(=O)n2c1 [Compound 502]
 |  | 100 to 500 | A (A denotes >20-fold) | Cc1cc([C@H](C)Nc2ccccc2C(=O)O)c2nc(-c3ccc4c(c3)CC(=O)N4)cc(=O)n2c1 [Compound 478]
 | < 100 |  | A (A denotes >20-fold) | COc1ccc(-c2nc3c([C@@H](C)Nc4ccccc4C(=O)O)cc(C)cn3c(=O)c2C)cc1 [Compound 1070]
A (A denotes >20-fold) | 100 to 500 |  |  | Cc1cc(C(C)Nc2ccccc2C(=O)O)c2nc(-c3ccc4c(c3)c(C(F)F)nn4C)cc(=O)n2c1 (centres unmarked) [Compound 769]
 |  | 500 to 2000 | B (B denotes 20-fold≥value>5-fold) | Cc1cc(C(C)Nc2ccccc2C(=O)O)c2nc(-c3ccc4c(c3)NC(=O)C4)cc(=O)n2c1 (centres unmarked) [Compound 506]
 |  | > 2000 | C (C denotes ≤5-fold) | Cc1cc([C@H](C)Nc2ccccc2)c2nc(-c3cnc4[nH]nc(-c5ccccc5)c4c3)cc(=O)n2c1 [Compound 266]
 |  |  | C (C denotes ≤5-fold) | Cc1cc([C@H](C)Nc2ccccc2C(=O)O)c2nc(-c3ccc(CC4CCN(C(=O)C5CC5)CC4)c(F)c3)c(C)c(=O)n2c1 [Compound 1315]
A (A denotes >20-fold) | < 100 |  |  | Cc1cc(C(C)Nc2ccccc2C(=O)O)c2nc(-c3ccc4c(c3)c(C)nn4C3CC3)cc(=O)n2c1 (centres unmarked) [Compound 890]
 | > 2000 |  | C (C denotes ≤5-fold) | Cc1cc([C@H](C)Nc2ccccc2S(N)(=O)=O)c2nc(-c3cnc4c(c3)c(C)cn4C)c(C)c(=O)n2c1 [Compound 1060]
C (C denotes ≤5-fold) | > 2000 |  |  | Cc1cc([C@H](C)Nc2ccccc2C(=O)O)c2nc(-c3c(C)ccc4c3cnn4C)cc(=O)n2c1 [Compound 815]
